{
  "source": "patent US20220213030A1",
  "about": "“AMINOGUANIDINE HYDRAZONES AS RETROMER STABILIZERS USEFUL FOR TREATING NEUROLOGICAL DISEASES” (OSPEDALE SAN RAFFAELE SRL, priority 2019, published 2022)",
  "key": {"[1]": {"test_system": "Golgi apparatus in Neuro2a cells receiving G93A plasmids", "assay": "Golgi morphology (Golgin97) in Neuro2a cells receiving G93A plasmids", "assay_type": "cell-based, mouse", "settings": "10 μM, 48 hours, G93A-transfected Neuro2a", "description": "Pathological alteration of the Golgi apparatus, such as its fragmentation, has been described in many neurodegenerative disorders including ALS. Neuro2a cells transfected with plasmids encoding the G93A mutant form of the SOD1 show alteration of the Golgi transport (Soo, Halloran et al. 2015). Along the same lines, Golgi fragmentation precedes neuromuscular denervation and axon retraction in ALS mice (van Dis, Kuijpers et al. 2014). We transfected Neuro2a cells with plasmids encoding the G93A mutant form of the human SOD1 gene (hereafter G93A) in presence or in absence of compound 2a (10 μM). Cells were harvested after 48 hours, labelled for Golgin-97 and scored for the distribution of trans-Golgi. […] Of note, the fragmentation of Golgi in cells receiving G93A plasmids was not depending on Golgin97 expression levels (FIG. 3A). We speculated that Golgi fragmentation may exacerbate cell death in this cell line. Therefore, we assayed cell survival of Neuro2a transfected with G93A plasmids. Accordingly, cells were transfected with G93A plasmids or with a control plasmid encoding the LacZ. […]\nGolgi morphology was assessed in control or in Neuro2a cells receiving G93A plasmids with or without compound 2a (10 μM) according to published methods (Stafa 2012). […] Golgi subclasses were expressed as a percent of the total number of Golgi scored for each experimental condition."}, "[2]": {"test_system": "Vps35, Vps26 and Vps29 mRNA", "assay": "Real time PCR of CRC genes in Neuro2a", "assay_type": "cell-based, mouse", "settings": "10 μM, 48 hours", "experimental": "(§1) Compound 2a increases the stability of the retromer complex in vitro. We further validated this concept by measuring VPS35 degradation rates by a cycloheximide (CHX) chase assay. Neuro2a cells received vehicle or lead 2a (10 μM) for 24 hours, then CHX was added to the medium, and VPS35 levels were measured by western blot. […] As is the case with R55 (Mecozzi, Berman et al. 2014), compound 2a should not influence the transcription levels of CRC genes in Neuro2a cells.\nLumbar spinal tracts dissected from saline perfused mice or Neuro2a cells were lysed to extract total RNAs using the RNeasy Mini Kit (Qiagen) according to the manufacturer's recommendations, including DNase (Promega) digestion. We synthetized the cDNA using ThermoScript RT-PCR System (Invitrogen) and Random Hexamer (Invitrogen), according to the manufacturer's instructions. The LightCycler 480 System (Roche) and LightCycler 480 SYBR Green I Master Mix (Roche) were used for real-time PCR experiments. Normalization was obtained using the housekeeping gene Histone H3\n(H3 F: 5′-[…]-3′ H3 R: 5′-[…]-3′). The following specific primers were used for gene expression analysis: […]"}, "VPS35": {"biological_target": "VPS35 (Mus musculus, UniProt Q9EQH3+Q9QZ88)", "assay": "Cycloheximide (CHX) chase assay of VPS35 degradation in Neuro2a", "assay_type": "cell-based", "parameters": "endogenous in cells; host or cells: Neuro2a", "settings": "10 μM for 24 hours, then CHX 10 μg/mL up to 8 h", "experimental": "as §1\nCycloheximide (CHX) assay was done on Neuro2a cells seeded in 6-well plates and incubated with compound 2a (10 μM) or vehicle for 24 hours. We next added CHX (Sigma) at 10 μg/mL and cells were collected at 0, 2, 4 and 8 hours for the time-course assay of VPS35 levels."}},
  "data": [
    {"smiles": "N=C(N)NN=Cc1cccc(C=NNC(=N)N)c1", "note": "[Compound 2a, 1,3-Bis-amino guanidine phenyl hydrazone]", "values": [
      {"measurement": "percentages of cells showing partial or complete fragmentation of the Golgi complex", "setting": "[1]", "value": "significantly diminished these percentages"},
      {"measurement": "mRNAs levels of Vps35, Vps26 and Vps29", "setting": "[2]", "value": "did not change"},
      {"measurement": "VPS35 degradation after CHX", "setting": "VPS35", "value": "protected VPS35 from degradation"}
    ]}
  ]
}
